Reference: US20230390223A1, “ADMINISTRATION OF […] COMPOSITIONS FOR TREATING NERVOUS SYSTEM DISORDERS” (PaxMedica, Inc., priority 2020, published 2023)
Several values for one entry are separate records, joined by “and”; a condition that tells them apart may be missing. Equal entries are not always repeated. Where two headings read alike, the source gives them in different places.

Legend:
[1] = tested on: B6.129P2-Fmr1tm1Cgr/J transgenic (TG) mice; experiment: Light/dark preference test (LDT), anxiety-like behavior, SmartCage; assay type: in vivo
From the text: The light/dark preference test (LDT) is one of the most widely used tests in pharmacology to measure unconditioned anxiety-like behavior in mice. The test is based on the natural aversion of mice to brightly illuminated areas and on their spontaneous exploratory behavior in response to a novel environment and light. See, Takao, K., et al., Light/dark Transition Test for Mice. J. Vis. Exp. (1), e104, doi:10.3791/104 (2006).
This study used a SmartCage™ system, which is an automated non-invasive rodent behavioral monitoring system which enables biomedical researchers to conduct a variety of neurobehavioral assays through consistent and accurate monitoring of rodent home cage activity and behavior. See, Xie X. S. et al. (2012) Rodent Behavioral Assessment in the Home Cage Using the SmartCage™™ System. In: Chen J., Xu X M., Xu Z., Zhang J. (eds) Animal Models of Acute Neurological Injuries II. Springer Protocols Handbooks. Humana Press, Totowa, NJ.
• 1. N=6 mice per group. • 2. All behavioral testing included a group of untreated wild type controls. • 3. Dosing for the various groups were as follows: • a. […] Group 2: IP saline, […], administered weekly to animals beginning at 9 weeks of age and continuing for four weeks (i.e. given at Age Weeks 9, 10, 11 and 12). • c. […] Behavioral tests for all groups (Groups 1-5) began the following day after the last day of IN dosing (Weeks 13-14 of age). • 2. Blood samples (PK testing) were collected from all mice at the end of 12 Weeks of age, just prior to starting the behavioral tests in Week 13. • 3. Brain tissue (for biochemistry testing) was harvested from all mice upon sacrifice at the conclusion of all behavioral testing at the end of 13-14 Weeks of age.
Male B6.129P2-Fmr1tm1Cgr/J TG mice were purchased from Jackson Laboratories, Bar Harbor, Maine. These mice were of approximately 8(±1) weeks of age. […] Mice accommodated to the research facility for the remainder of the week. Dosing began on the following Monday. Body weights of all mice were recorded for health monitoring purposes.
Dosing was carried out over the course of 28 days as instructed by the study sponsor. • 1. Prior to the beginning of the light/dark test, a dark box (red transparent enclosure with an opening for the mouse to enter) is placed in the SmartCage™. • 2. An individual mouse is placed in the open/non-dark box side (“Light Zone”), with its head facing away from the dark box. • 3. The mouse is then allowed to freely explore the SmartCage™ and enter the dark box “Dark Zone” at its own discretion over a 10-minute span. • 4. Anxiety-like behavior is assessed based on the SmartCage™ monitoring of time spent in the Light Zone, the number of Light Zone entries, and % Time Spent in the Light Zone. • 5. […] Wildtype Control data (collected separately prior to the beginning […] of the B6.129P2-Fmr1tm1Cgr/J TG mice) was added to the final data analysis to serve as a comparison for naive, male C57BL/6 mice.
No food or water is withheld and only natural stressors such as light are used. Four similarly calibrated SmartCages™ were used to record four mice simultaneously (example cage shown below). All Light/Dark tests were completed in one day.
Light/Dark Test Setup—Dark Box placed within the transparent homecage; homecage placed within the SmartCage™ monitoring system.

[2] = tested on: mouse model of epilepsy; details: cited from earlier work
[3] = tested on: B6.129P2-Fmr1tm1Cgr/J transgenic (TG) mice; experiment: Locomotor activity test, SmartCage ~24 h recording; assay type: in vivo; details: for Active time: versus WT control group
[4] = tested on: B6.129P2-Fmr1tm1Cgr/J transgenic (TG) mice; experiment: Step through passive avoidance test (learning and memory); assay type: in vivo
From the text: The Passive Avoidance task is useful for evaluating the effect of novel chemical entities on learning and memory as well as studying the mechanisms involved in rodent models of CNS disorders. In this test, the test chamber is divided into a lighted compartment and a dark compartment, with a gate between the two. The test animals explored both compartments on the first day. The next day, they are given a mild foot shock in the dark compartment and they will learn to associate the dark compartment with the foot shock. In order to test their learning and memory, the mice are then placed back in the lighted compartment. Passive avoidance behavior of rodents is defined as the suppression of their innate preference for the dark compartment. Mice with normal learning and memory will avoid entering the dark chamber. Learning and memory from the previous day is measured by recording the latency to cross through the gate between the two compartments. See, J. David Sweatt, Chapter 4: Rodent Behavioral Learning and Memory Models, Editor: J. David Sweatt. Mechanisms of Memory (Second Edition), Academic Press, 2010, Pages 76-103, ISBN 9780123749512.
This study used a SmartCage™ system, which is an automated non-invasive rodent behavioral monitoring system which enables biomedical researchers to conduct a variety of neurobehavioral assays through consistent and accurate monitoring of rodent home cage activity and behavior. See, Xie et al, 2012.
• 1. N=6 mice per group. • 2. All behavioral testing included a group of untreated wild type (WT) controls. • 3. Dosing for the various groups were as follows: • a. […] Group 2: IP saline, […], administered weekly to animals beginning at 9 weeks of age and continuing for four weeks (i.e. given at Age Weeks 9, 10, 11 and 12). • c. […] Behavioral tests for all groups (Groups 1-5) began the following day after the last day of IN dosing (Weeks 13-14 of age). • 2. Blood samples (for PK testing) were collected from all mice at the end of Week 12 of age, just prior to starting the behavioral tests in Week 13 of age. • 3. Brain tissue (for biochemistry testing) was harvested from all mice upon sacrifice at the conclusion of all behavioral testing at the end of Week 13-14 of age.
Male B6.129P2-Fmr1tm1Cgr/J TG (TG) mice were purchased from Jackson Laboratories, Bar Harbor, Maine. These mice were of approximately 8 (±1) weeks of age. […] Mice accommodated to the research facility for the remainder of the week. Dosing began on the following Monday. Body weights of all mice were recorded for health monitoring purposes.
Dosing was carried out over the course of 28 days as instructed by the study Sponsor. […]

[5] = Determination of suramin in plasma and brain tissue after IP or IN administration; assay type: in vivo, mice; details: for Kp: male, Fmr1-knockout B6.129P2-Fmr1tm1Cgr/J, mouse, brain/plasma, other: intranasal, 100 mg/mL, read-out: Average Brain Tissue to Plasma Partitioning Ratio
From the text: For the study, male Fmr1-knockout B6.129P2-Fmr1tm1Cgr/J TG mice were purchased from Jackson Laboratories, Bar Harbor, Maine. These mice were of approximately 8 weeks of age. […] The absence of FMRP in these mice induces an over-activation of RAC1, a protein of the Rho GTPase subfamily that plays a critical role in dendritic morphology and synaptic function. These B6.129P2-Fmr1tm1Cgr/J TG mice, provide an animal model for cognitive disabilities and neurodevelopmental disorders.
Mice were accommodated to the research facility for approximately a week. Body weights of all mice were recorded for health monitoring purposes.
The remaining ingredients, except the cyclodextrin are added with mixing. The cyclodextrin is then added with mixing until dissolved. The resultant solution is allowed to sit for 2 hours before using.
Blood samples were collected from all mice at the end of 12 weeks of age. Brain tissue was harvested from all mice upon sacrifice 13-14 weeks of age. Standard sample preparation and analytical techniques were used to obtain the data.

[6] = 10-minute test, group regimens: A-804598 IP 30 mg/kg/day, tangeretin IP 10 mg/kg/day, emodin+piperine PO 20 mg/kg each twice per day
[7] = 10-minute test, suramin IN weekly (100 mg/mL, one spray per nostril, 4 weeks)
[8] = suramin IP 20 mg/kg weekly for four weeks
[9] = 5-minute test, suramin IP 20 mg/kg weekly for four weeks

With C[C@H](N/C(=N/C#N)Nc1cccc2ncccc12)c1ccccc1 [Formulation A-804598, N-Cyano-N″-[(1S)-1-phenylethyl]-N′-5-quinolinyl-guanidine] the “number of Light Zone entries” value ([1]; 10-minute test, each group at its regimen, compared to WT mice) was “significantly lower number of light zone entries”.
In the case of O=C(NCC1(N2CCN(c3ccccc3)CC2)CCOCC1)c1cccnc1Sc1ccccc1 [JNJ-47965567, 2-(Phenylthio)-N-[[tetrahydro-4-(4-phenyl-1-piperazinyl)-2H-pyran-4-yl]methyl]-3-pyridinecarboxamide], the “effect on epileptic seizures” value [2] is listed as “suppress epileptic seizures”.
In the case of COc1ccc(-c2cc(=O)c3c(OC)c(OC)c(OC)c(OC)c3o2)cc1 [Tangeretin, 5,6,7,8-tetramethoxy-2-(4-methoxyphenyl)-4H-1-benzopyran-4-one], the “percentage of time spent in the Light Zone” value [1, 6] is reported as “higher percentage of time spent in the Light Zone”, the “total time spent in the light zone” value [1, 6] is reported as roughly 6.5 min and the Active time ([3]; A-804598 IP 30 mg/kg/day, tangeretin IP 10 mg/kg/day) is reported as “greater activity compared to the WT control group”. The “total number of Dark Zone Entries” value ([4]; test day, tangeretin IP 10 mg/kg/day, emodin+piperine PO 20 mg/kg each twice per day, other groups at their regimens) was “one”.
With Cc1ccc(C(=O)Nc2ccc(S(=O)(=O)O)c3cc(S(=O)(=O)O)cc(S(=O)(=O)O)c23)cc1NC(=O)c1cccc(NC(=O)Nc2cccc(C(=O)Nc3cc(C(=O)Nc4ccc(S(=O)(=O)O)c5cc(S(=O)(=O)O)cc(S(=O)(=O)O)c45)ccc3C)c2)c1 [suramin, 1,3,5-Naphthalenetrisulfonic acid, 8,8′-[carbonylbis[imino-3,1-phenylenecarbonylimino(4-methyl-3,1-phenylene)carbonylimino]]bis-] the “Average Plasma Concentration” value ([5]; Group 1: IP 20 mg/kg weekly for four weeks, blood at end of 12 weeks of age, 20 mg/kg) was 18733 ng/ml and 14.440 μM, the “Average Plasma Concentration” value ([5]; Group 3: IN formulation 100 mg/mL, one spray per nostril, one time per day for 28 days) was 1637 ng/ml and 1.262 μM and the “Average Plasma Concentration” value ([5]; Group 4: IN formulation 100 mg/mL, one spray per nostril, every other day for 28 days) was 1578 ng/ml and 1.217 μM. The “Average Plasma Concentration” value ([5]; Group 5: IN formulation 100 mg/mL, one spray per nostril, one time every week for 4 weeks) was 278.7 ng/ml and 0.215 μM, the Kp ([5]; one spray per nostril, Group 3: IN formulation 100 mg/mL, one spray per nostril, one time per day for 28 days) was 0.069 and the Kp ([5]; one spray per nostril, Group 4: IN formulation 100 mg/mL, one spray per nostril, every other day for 28 days) was 0.089. For the same compound, the Kp ([5]; one spray per nostril, Group 5: IN formulation 100 mg/mL, one spray per nostril, one time every week for 4 weeks) was 0.235, the “percentage of time spent in the Light Zone” value [1, 7] was “higher percentage of time spent in the Light Zone” and the “total time spent in the light zone” value [1, 7] was roughly 6.5 min. The “Dark Zone entry latency” value ([1]; all IN suramin groups (daily, every other day, weekly; 100 mg/mL, one spray per nostril, 28 days)) was 60 to 65 s, the “Dark Zone entry latency” value [1, 8] was 30 to 40 s and the Active time ([3]; all IN Suramin groups (Daily, Weekly, Every 2 Days)) was “greater activity compared to the WT control group”. The Rearing count ([3]; suramin IN every 2 days, versus WT control) was “comparable to the WT control group”, the “percentage of time spent in the light zone on the test day” value [4, 9] was “approximately 50%” and the “total light zone time on the test day” value [4, 9] was “lower total time”. The “Dark Zone entry latency, Test Day (24 h post-foot shock)” value [4, 8] was “shortest latency for entering the dark compartment”.
